Test results from ChEMBL document CHEMBL4665778, “Discovery of Potent and Selective PI3Kγ Inhibitors” (J Med Chem, 2020).

Columns and labels:
[1] = target: PI3-kinase p110-alpha/p85-alpha (Homo sapiens, UniProt P42336)
Description: Inhibition of recombinant N-terminal FLAG-tagged full-length human PI3K p110alpha/human p85alpha co- expressed in Sf9 insect cells using phosphatidylinositol 4,5-bisphosphate as substrate preincubated for 60 mins followed by substrate addition and measured after 1 hr in presence of ATP by ADP-Glo lipid kinase assay

[2] = target: T1, Phosphatidylinositol 4,5-bisphosphate 3-kinase catalytic subunit gamma isoform (Homo sapiens, UniProt P48736)
Description: Inhibition of recombinant N-terminal His-tagged full-length human PI3K p120gamma expressed in Sf9 insect cells using phosphatidylinositol 4,5-bisphosphate as substrate preincubated for 60 mins followed by substrate addition and measured after 1 hr in presence of ATP by ADP-Glo lipid kinase assay

[3] = target: PI3-kinase p110-delta/p85-alpha (Homo sapiens, UniProt O00329)
Description: Inhibition of recombinant N-terminal GST-tagged full-length human PI3K p110delta/p85alpha co- expressed in Sf9 insect cells using phosphatidylinositol 4,5-bisphosphate as substrate preincubated for 60 mins followed by substrate addition and measured after 1 hr in presence of ATP by ADP-Glo lipid kinase assay

[4] = target: T1, Phosphatidylinositol 4,5-bisphosphate 3-kinase catalytic subunit gamma isoform; remark: listed apart in the source
Description: Inhibition of PI3Kgamma in human THP-1 cells assessed as reduction in Akt phosphorylation at S473 residue incubated for 60 mins by alphalisa assay

[5] = Intrinsic clearance in human hepatocytes assessed per 10^6 cells at 0.5 uM by LC-MS/MS analysis; format: ADME, cell-based, Hepatocyte; conditions: read-out: CLH
[6] = Intrinsic clearance rat hepatocytes assessed per 10^6 cells by LC-MS/MS analysis; format: ADME, tissue-based, Hepatocyte; conditions: read-out: CLH
[7] = Clearance in Sprague-Dawley rat at 0.25 mg/kg, iv by LC-MS/MS analysis; format: ADME, organism-based; conditions: in vivo
[8] = Volume of distribution at steady state in Sprague-Dawley rat at 0.25 mg/kg, iv by LC-MS/MS analysis; format: ADME, organism-based; conditions: in vivo, read-out: Vdss
[9] = target: PI3K p110 beta/p85 alpha (Homo sapiens, UniProt P42338)
PI3K p110 beta/p85 alpha, sequence (P27986 whole entry): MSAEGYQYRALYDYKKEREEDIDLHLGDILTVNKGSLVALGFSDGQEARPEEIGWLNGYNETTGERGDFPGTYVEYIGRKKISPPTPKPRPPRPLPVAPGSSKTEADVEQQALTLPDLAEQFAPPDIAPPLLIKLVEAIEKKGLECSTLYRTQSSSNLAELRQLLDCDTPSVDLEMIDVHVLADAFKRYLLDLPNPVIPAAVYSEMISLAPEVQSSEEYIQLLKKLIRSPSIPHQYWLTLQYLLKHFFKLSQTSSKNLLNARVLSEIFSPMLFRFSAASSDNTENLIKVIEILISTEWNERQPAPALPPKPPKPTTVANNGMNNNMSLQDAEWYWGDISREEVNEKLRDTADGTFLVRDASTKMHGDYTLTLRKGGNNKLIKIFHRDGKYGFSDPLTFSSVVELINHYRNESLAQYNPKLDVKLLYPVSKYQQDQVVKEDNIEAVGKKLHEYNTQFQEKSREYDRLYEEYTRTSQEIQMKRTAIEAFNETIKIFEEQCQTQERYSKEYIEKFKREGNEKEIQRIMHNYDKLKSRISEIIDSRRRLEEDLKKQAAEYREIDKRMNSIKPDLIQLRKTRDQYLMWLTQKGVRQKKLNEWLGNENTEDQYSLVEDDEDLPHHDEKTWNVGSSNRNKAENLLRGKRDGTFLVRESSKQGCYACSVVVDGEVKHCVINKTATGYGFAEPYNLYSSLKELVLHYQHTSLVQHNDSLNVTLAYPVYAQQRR
PI3K p110 beta/p85 alpha, sequence (P42338 whole entry): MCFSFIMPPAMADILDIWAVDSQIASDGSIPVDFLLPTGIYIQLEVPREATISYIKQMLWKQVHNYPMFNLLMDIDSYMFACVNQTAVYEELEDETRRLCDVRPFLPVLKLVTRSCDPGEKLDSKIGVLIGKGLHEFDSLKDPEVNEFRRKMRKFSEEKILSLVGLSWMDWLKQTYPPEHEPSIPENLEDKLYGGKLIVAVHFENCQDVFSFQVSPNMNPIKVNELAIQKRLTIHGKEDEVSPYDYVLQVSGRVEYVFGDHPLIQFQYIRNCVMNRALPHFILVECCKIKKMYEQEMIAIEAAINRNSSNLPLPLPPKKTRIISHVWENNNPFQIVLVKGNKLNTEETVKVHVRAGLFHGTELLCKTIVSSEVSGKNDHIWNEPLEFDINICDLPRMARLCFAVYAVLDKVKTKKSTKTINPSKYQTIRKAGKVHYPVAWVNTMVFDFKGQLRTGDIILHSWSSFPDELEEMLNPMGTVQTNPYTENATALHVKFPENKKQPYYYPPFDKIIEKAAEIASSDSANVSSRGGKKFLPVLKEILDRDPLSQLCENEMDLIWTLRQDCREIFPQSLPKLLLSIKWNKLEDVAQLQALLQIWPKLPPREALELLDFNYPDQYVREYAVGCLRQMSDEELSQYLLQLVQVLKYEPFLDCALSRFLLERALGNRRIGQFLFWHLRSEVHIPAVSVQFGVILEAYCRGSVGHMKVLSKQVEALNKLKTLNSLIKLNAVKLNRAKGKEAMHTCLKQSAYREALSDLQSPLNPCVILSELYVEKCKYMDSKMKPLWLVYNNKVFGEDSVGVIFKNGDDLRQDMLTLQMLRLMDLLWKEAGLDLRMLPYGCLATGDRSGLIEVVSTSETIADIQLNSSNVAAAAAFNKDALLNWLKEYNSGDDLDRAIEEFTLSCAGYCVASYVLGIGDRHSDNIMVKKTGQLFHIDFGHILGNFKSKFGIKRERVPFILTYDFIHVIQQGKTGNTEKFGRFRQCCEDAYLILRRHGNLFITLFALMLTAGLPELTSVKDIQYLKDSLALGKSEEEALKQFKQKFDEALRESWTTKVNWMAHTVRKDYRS
Description: Inhibition of recombinant N-terminal FLAG-tagged full-length human PI3K p110beta/human p85alpha co- expressed in Sf9 insect cells using phosphatidylinositol 4,5-bisphosphate as substrate preincubated for 60 mins followed by substrate addition and measured after 1 hr in presence of ATP by ADP-Glo lipid kinase assay

[10] = species on record: Homo sapiens; assay: Selectivity index, ratio of IC50 for N-terminal FLAG-tagged full-length human PI3K p110beta/human p85alpha to IC50 for recombinant N-terminal His-tagged full-length human PI3K p120gamma
[11] = target: CYP3A4 (Homo sapiens, UniProt P08684); assay: in vitro; conditions: liver microsomes, probe midazolam

PI3-kinase p110-delta/p85-alpha, sequence (P27986 whole entry, canonical isoform): as the sequence (P27986 whole entry) above
PI3-kinase p110-delta/p85-alpha, sequence (O00329 whole entry, canonical isoform): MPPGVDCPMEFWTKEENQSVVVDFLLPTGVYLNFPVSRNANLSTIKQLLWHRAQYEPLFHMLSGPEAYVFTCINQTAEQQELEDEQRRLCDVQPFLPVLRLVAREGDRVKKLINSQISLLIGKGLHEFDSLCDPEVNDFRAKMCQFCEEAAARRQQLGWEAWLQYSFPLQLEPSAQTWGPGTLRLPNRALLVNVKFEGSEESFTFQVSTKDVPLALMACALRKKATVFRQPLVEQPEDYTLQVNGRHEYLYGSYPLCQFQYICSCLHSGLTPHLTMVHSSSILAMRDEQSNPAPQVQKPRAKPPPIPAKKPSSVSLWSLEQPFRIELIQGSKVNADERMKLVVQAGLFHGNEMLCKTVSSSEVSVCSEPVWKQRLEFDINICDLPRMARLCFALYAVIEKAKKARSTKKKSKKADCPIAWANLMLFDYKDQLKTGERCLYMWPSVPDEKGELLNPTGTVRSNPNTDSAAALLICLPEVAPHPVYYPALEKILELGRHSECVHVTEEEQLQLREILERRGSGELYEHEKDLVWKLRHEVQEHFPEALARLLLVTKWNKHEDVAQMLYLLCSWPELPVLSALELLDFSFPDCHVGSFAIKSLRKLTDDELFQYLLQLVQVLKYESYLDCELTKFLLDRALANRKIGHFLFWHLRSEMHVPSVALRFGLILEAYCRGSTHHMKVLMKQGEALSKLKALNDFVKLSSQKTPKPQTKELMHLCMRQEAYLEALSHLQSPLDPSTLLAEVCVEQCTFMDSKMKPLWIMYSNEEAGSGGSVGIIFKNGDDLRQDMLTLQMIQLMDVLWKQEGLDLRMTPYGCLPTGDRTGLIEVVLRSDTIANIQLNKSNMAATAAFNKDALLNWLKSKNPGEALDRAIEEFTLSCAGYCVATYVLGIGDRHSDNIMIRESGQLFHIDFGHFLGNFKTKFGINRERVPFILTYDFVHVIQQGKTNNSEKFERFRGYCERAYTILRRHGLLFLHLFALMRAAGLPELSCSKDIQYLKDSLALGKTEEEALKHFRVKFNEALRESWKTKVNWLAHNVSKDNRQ
PI3-kinase p110-alpha/p85-alpha, sequence (P27986 whole entry, canonical isoform): as the sequence (P27986 whole entry) above
PI3-kinase p110-alpha/p85-alpha, sequence (P42336 whole entry, canonical isoform): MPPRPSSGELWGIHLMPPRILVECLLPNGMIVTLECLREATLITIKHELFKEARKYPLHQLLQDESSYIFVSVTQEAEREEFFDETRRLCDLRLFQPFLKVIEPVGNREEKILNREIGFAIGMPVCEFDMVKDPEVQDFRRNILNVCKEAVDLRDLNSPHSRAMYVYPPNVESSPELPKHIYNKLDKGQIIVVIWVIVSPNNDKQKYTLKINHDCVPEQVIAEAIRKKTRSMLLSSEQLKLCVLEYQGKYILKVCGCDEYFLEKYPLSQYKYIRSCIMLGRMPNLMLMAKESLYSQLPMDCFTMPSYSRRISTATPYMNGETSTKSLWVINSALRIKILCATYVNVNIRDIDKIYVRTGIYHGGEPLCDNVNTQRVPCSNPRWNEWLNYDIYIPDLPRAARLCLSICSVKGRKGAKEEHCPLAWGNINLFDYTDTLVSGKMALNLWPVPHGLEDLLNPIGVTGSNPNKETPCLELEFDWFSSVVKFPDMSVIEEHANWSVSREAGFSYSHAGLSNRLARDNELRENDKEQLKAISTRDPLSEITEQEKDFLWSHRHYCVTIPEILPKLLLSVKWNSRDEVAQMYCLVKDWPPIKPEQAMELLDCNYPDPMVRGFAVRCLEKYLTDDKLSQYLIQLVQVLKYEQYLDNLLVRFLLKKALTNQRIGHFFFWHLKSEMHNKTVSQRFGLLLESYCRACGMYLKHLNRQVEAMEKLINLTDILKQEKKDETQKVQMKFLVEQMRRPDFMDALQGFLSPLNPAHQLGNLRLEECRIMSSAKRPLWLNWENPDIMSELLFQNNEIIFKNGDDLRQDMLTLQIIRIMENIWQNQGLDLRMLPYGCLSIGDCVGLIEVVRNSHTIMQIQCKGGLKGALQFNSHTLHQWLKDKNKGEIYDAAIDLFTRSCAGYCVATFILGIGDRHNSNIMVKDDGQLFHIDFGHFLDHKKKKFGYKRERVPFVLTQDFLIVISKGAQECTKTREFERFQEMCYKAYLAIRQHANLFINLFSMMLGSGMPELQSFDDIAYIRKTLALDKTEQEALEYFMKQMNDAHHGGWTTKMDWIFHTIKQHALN
T1 sequence (P48736 whole entry, canonical isoform): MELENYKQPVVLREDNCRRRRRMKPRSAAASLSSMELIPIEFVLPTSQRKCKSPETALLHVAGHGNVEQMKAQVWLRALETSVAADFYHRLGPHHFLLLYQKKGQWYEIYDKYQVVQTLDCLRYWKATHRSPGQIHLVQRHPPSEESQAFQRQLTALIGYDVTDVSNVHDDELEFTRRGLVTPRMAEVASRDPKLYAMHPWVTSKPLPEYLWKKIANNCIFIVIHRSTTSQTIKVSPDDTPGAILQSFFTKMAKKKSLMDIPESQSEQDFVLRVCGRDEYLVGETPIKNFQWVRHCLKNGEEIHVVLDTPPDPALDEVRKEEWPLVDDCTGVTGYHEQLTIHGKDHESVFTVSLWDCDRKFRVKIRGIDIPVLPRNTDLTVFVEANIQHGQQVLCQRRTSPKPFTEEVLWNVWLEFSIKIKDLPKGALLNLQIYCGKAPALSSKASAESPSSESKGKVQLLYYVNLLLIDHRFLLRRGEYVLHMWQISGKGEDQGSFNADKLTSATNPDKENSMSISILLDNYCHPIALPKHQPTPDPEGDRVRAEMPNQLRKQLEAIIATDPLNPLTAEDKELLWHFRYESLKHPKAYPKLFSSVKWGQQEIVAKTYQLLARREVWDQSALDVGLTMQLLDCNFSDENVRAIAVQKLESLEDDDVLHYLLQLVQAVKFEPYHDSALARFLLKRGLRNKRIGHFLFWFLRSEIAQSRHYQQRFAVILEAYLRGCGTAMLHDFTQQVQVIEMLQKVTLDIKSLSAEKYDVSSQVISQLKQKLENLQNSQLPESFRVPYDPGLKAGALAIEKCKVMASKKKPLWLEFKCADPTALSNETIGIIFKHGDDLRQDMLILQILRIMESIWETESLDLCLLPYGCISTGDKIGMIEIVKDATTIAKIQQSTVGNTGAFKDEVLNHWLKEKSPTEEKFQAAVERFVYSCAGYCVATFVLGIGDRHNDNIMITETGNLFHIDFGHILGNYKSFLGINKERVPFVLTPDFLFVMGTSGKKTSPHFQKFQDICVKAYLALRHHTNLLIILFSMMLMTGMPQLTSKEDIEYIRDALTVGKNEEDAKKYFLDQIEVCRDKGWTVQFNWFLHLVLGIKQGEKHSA

Row | IC50 [1] [nM] | IC50 [2] [nM] | IC50 [3] [nM] | IC50 [4] [nM] | IC50 [9] [nM] | Ratio IC50 [10] | inhibition at 10 µM [11] [%] | SMILES | hepatocyte CLint at 0.5 µM [5] [µL/min/1e6 cells] | hepatocyte CLint [6] [µL/min/1e6 cells] | clearance [7] [mL/min/kg] | Vd [8] [L/kg]
1 | 2730 | 7.5 | 2200 | 550 | – | – | – | Cc1cc(-c2ccn3nc(N)c(-c4ccncn4)c3n2)cc2c1C(=O)N([C@@H](C)C1CC1)C2 | – | – | – | –
2 | 96 | 2.2 | 210 | 210 | – | – | – | Cc1cc(-c2c(N)nn3ccc(-c4cc(C)c5c(c4)CN([C@@H](C)C4CC4)C5=O)nc23)ccc1C(=O)O | – | – | – | –
3 | 9850 | 2.7 | 4550 | 240 | – | – | – | CNS(=O)(=O)c1cc(-c2ccn3nc(NC(C)=O)cc3n2)cc2c1C(=O)N([C@@H](C)C1CC1)C2 | – | – | – | –
4 | > 10000 | 429 | > 10000 | 1500 | – | – | – | CC(=O)Nc1nn2ccc(-c3cc(C)c4c(c3)CN([C@@H](C)C3CC3)C4=O)nc2c1-c1cnn(C)c1 | – | – | – | –
5 | > 10000 | 60 | > 10000 | 4200 | – | – | – | Cc1cc(-c2ccn3nc(N)cc3n2)cc2c1C(=O)N([C@@H](C)C1CC1)C2 | – | – | – | –
6 | > 10000 | 14 | > 10000 | 690 | – | – | – | COCC(=O)Nc1cn2nc(-c3cc(C)c4c(c3)CN([C@@H](C)C3CC3)C4=O)ccc2n1 | – | – | – | –
7 | 6290 | 31 | 6050 | 630 | – | – | – | Cc1cc(-c2ccn3nc(N)c(-c4nc[nH]n4)c3n2)cc2c1C(=O)N([C@@H](C)C1CC1)C2 | – | – | – | –
8 | > 10000 | 64 | > 10000 | 2300 | – | – | – | Cc1cc(-c2ccn3nc(N)c(-c4ccccn4)c3n2)cc2c1C(=O)N([C@@H](C)C1CC1)C2 | – | – | – | –
9 | 1980 | 44 | 2690 | 620 | – | – | – | Cc1cc(-c2ccn3nc(N)c(-c4ccn[nH]4)c3n2)cc2c1C(=O)N([C@@H](C)C1CC1)C2 | – | – | – | –
10 | 4140 | 9.1 | 3440 | 300 | – | – | – | Cc1cc(-c2ccn3ncc(-c4cnn(C)c4)c3n2)cc2c1C(=O)N([C@@H](C)C1CC1)C2 | – | – | – | –
11 | > 10000 | 70 | > 10000 | 9400 | – | – | – | Cc1cc(-c2ccc3nc(NC(=O)C(C)C)cn3n2)cc2c1C(=O)N([C@@H](C)C1CC1)C2 | – | – | – | –
12 | > 10000 | 5300 | > 10000 | > 30000 | – | – | – | Cc1cc(-c2ccc3nc(NS(C)(=O)=O)cn3n2)cc2c1C(=O)N([C@@H](C)C1CC1)C2 | – | – | – | –
13 | > 10000 | 53 | > 10000 | 800 | – | – | – | C[C@@H](C1CC1)N1Cc2cc(-c3ccn4nc(N)c(-c5ncccn5)c4n3)cc(C(F)(F)F)c2C1=O | – | – | – | –
14 | > 10000 | 5.5 | > 10000 | 450 | > 10000 | > 1820 | – | CC(=O)Nc1cn2nc(-c3cc(C)c4c(c3)CN([C@@H](C)C3CC3)C4=O)ccc2n1 | – | – | – | –
15 | > 10000 | 7.3 | > 10000 | 830 | – | – | – | CCC(=O)Nc1cn2nc(-c3cc(C)c4c(c3)CN([C@@H](C)C3CC3)C4=O)ccc2n1 | – | – | – | –
16 | > 10000 | 291 | > 10000 | 15000 | > 10000 | > 34 | – | Cc1cc(-c2ccc3nc(N)nn3c2)cc2c1C(=O)N([C@@H](C)C1CC1)C2 (racemic) | – | – | – | –
17 | > 10000 | 482 | > 10000 | 1000 | > 10000 | > 21 | – | CC(=O)Nc1nc2cc(-c3cc(C)c4c(c3)CN([C@@H](C)C3CC3)C4=O)ccc2[nH]1 (racemic) | – | – | – | –

Row | IC50 [1] [nM] | IC50 [2] [nM] | IC50 [3] [nM] | IC50 [4] [nM] | IC50 [9] [nM] | Ratio IC50 [10] | inhibition at 10 µM [11] [%] | SMILES | hepatocyte CLint at 0.5 µM [5] [µL/min/1e6 cells] | hepatocyte CLint [6] [µL/min/1e6 cells] | clearance [7] [mL/min/kg] | Vd [8] [L/kg]
18 | 8970 | 1.3 | 6140 | 160 | – | – | – | CC(=O)Nc1cc2nc(-c3cc4c(c(NS(C)(=O)=O)c3)C(=O)N([C@@H](C)C3CC3)C4)ccn2n1 | – | – | – | –
19 | 1510 | 6.6 | 2240 | 440 | – | – | – | Cc1c(-c2c(N)nn3ccc(-c4cc5c(c(C(F)(F)F)c4)C(=O)N([C@@H](C)C4CC4)C5)nc23)cnn1C | – | – | – | –
20 | 82.4 | 1 | 125 | 76 | 10100 | 10100 | – | CC(C)c1cc(-c2c(N)nn3ccc(-c4cc5c(c(C(F)(F)F)c4)C(=O)N([C@@H](C)C4CC4)C5)nc23)ccc1C(=O)O | – | – | – | –
21 | > 10000 | 4.4 | > 10000 | 240 | – | – | – | CC(=O)Nc1cc2nc(-c3cc(C)c4c(c3)CN([C@@H](C)C3CC3)C4=O)ccn2n1 | – | – | – | –
22 | 1160 | 6.4 | 1160 | 400 | – | – | – | Cc1cc(-c2ccn3nc(N)c(-c4cnn(CCO)c4)c3n2)cc2c1C(=O)N([C@@H](C)C1CC1)C2 | – | – | – | –
23 | > 10000 | > 10000 | > 10000 | – | > 10000 | – | – | Cc1cc(-c2ccc3[nH]c(N)nc3c2)cc2c1C(=O)N([C@@H](C)C1CC1)C2 (racemic) | – | – | – | –
24 | > 10000 | 15 | 2380 | 440 | – | – | – | Cc1cc(-c2ccc3ncc(-c4cnn(C)c4)n3n2)cc2c1C(=O)N([C@@H](C)C1CC1)C2 | – | – | – | –
25 | > 10000 | 76 | > 10000 | 3000 | > 10000 | > 131 | – | CC(=O)Nc1nc2ccc(-c3cc(C)c4c(c3)CN([C@@H](C)C3CC3)C4=O)cn2n1 (racemic) | – | – | – | –
26 | 2470 | 2.9 | 8210 | 460 | – | – | – | Cc1cc(-c2ccc3nc(NC(=O)N4CCC[C@H]4C(N)=O)cn3n2)cc2c1C(=O)N([C@@H](C)C1CC1)C2 | – | – | – | –
27 | 5450 | 2.1 | 4660 | 870 | – | – | – | Cc1cc(-c2ccn3nc(N)c(-c4ccc(CC(=O)O)cc4)c3n2)cc2c1C(=O)N([C@@H](C)C1CC1)C2 | – | – | – | –
28 | > 10000 | 8 | 4550 | 470 | – | – | – | Cc1nn(C)cc1-c1c(N)nn2ccc(-c3cc4c(c(C(F)(F)F)c3)C(=O)N([C@@H](C)C3CC3)C4)nc12 | – | – | – | –
29 | > 10000 | 50 | > 10000 | 3100 | > 10000 | > 200 | – | Cc1cc(-c2ccn3nc(N)nc3c2)cc2c1C(=O)N([C@@H](C)C1CC1)C2 | – | – | – | –
30 | > 10000 | 17 | > 10000 | 490 | – | – | – | Cc1cc(-c2ccc3nc(N)c(-c4cnn(C)c4)n3n2)cc2c1C(=O)N([C@@H](C)C1CC1)C2 | – | – | – | –
31 | > 10000 | 425 | > 10000 | 1500 | > 10000 | > 24 | – | Cc1cc(-c2ccc3nc(N)cn3n2)cc2c1C(=O)N([C@@H](C)C1CC1)C2 (racemic) | – | – | – | –
32 | 2260 | 5.9 | 3250 | 230 | – | – | – | Cc1ncc(-c2c(N)nn3ccc(-c4cc(C)c5c(c4)CN([C@@H](C)C4CC4)C5=O)nc23)o1 | – | – | – | –
33 | 194 | 2.1 | 459 | 74 | 11600 | 5520 | 13 | CC(C)c1cc(-c2cnn3ccc(-c4cc5c(c(C(F)(F)F)c4)C(=O)N([C@@H](C)C4CC4)C5)nc23)ccc1C(=O)O | < 1.2 | 1.7 | 86.7 | 25
34 | > 10000 | 93 | > 10000 | 12000 | – | – | – | Cc1cc(-c2ccc3nc(NC(=O)c4ccccc4)cn3n2)cc2c1C(=O)N([C@@H](C)C1CC1)C2 | – | – | – | –

Row | SMILES | IC50 [1] [nM] | IC50 [2] [nM] | IC50 [3] [nM] | IC50 [4] [nM] | IC50 [9] [nM] | Ratio IC50 [10] | inhibition at 10 µM [11] [%] | hepatocyte CLint at 0.5 µM [5] [µL/min/1e6 cells] | hepatocyte CLint [6] [µL/min/1e6 cells] | clearance [7] [mL/min/kg] | Vd [8] [L/kg]
35 | CC(=O)Nc1cc2nc(-c3cc4c(c(C(F)(F)F)c3)C(=O)N([C@@H](C)C3CC3)C4)ccn2n1 | 8340 | 2.2 | 2610 | 150 | – | – | – | 2.4 | < 1.2 | – | –
36 | C[C@@H](C1CC1)N1Cc2cc(-c3ccn4nc(N)c(-c5cnn(C)c5)c4n3)cc(C(F)(F)F)c2C1=O | 1940 | 1.9 | 1310 | 64 | > 15000 | – | – | 3.3 | 7.4 | 13 | 1.2
